Data as given in patent US11717508B2, “Compounds, compositions, and methods for inhibiting bacterial growth” (priority 2016, dated 2023).

Tested on: DosRST regulon
Type: cell-based
Details: 40 μM, 6 days, >2-fold, p<0.05

Compound: C[C@@H]1CC(C)(C)C[C@]2(C1)NC(=O)NC2=O (racemic) [HC102A, 7,7,9-trimethyl-1,3-diazaspiro[4.5]decane-2,4-dione]
- genes downregulated by compound that are also downregulated in the CDC1551(ΔdosR) mutant: 48 genes
